Consider 13 compounds from ChEMBL document CHEMBL1201862, “PubChem BioAssay data set” (2004).

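Results reflect a 48-hour exposure of cells in 96-well plates to compound at five concentrations. GI50 = concentration required for 50% inhibition of growth.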 Active and inactive are the calls of the source. Cut-off read from the data, not from the text of the source: active = GI50 up to about 1.1 µM and inactive = higher.

Assay in all cases: inhibition of tumour cell growth, NCI panel, 48 h
The test system of experiment [1] is NCI-H23.
In experiment [2] the test system is A549.
In experiment [3] the test system is SNB-75.
Experiment [4] relates to DLD-1.
For experiment [5], the system named is U-251.
The subject of experiment [6] is SK-MEL-5.
Experiment [7] concerns SF-539.
For experiment [8], the system named is SK-MEL-2.
The subject of experiment [9] is MOLT-4.
Experiment [10] deals with 786-0.
Experiment [11] deals with M14.
The subject of experiment [12] is CAKI-1.
Experiment [13] relates to HOP-62.
Experiment [14] concerns SNB-19.
The subject of experiment [15] is HCT-116.
Experiment [16] concerns OVCAR-5.
Experiment [17] deals with SR.

For `O=[N+]([O-])c1ccc(Cl)cc1C1SCc2nc3ccccc3n21` (configuration not stated), the GI50 is 27.6 µM (inactive) in experiment [1]; 41.7 µM (inactive) in experiment [2]; 16.3 µM (inactive) in [3]; 37.2 µM (inactive) in experiment [4]; 40.4 µM (inactive) in experiment [5]; 27.7 µM (inactive) in experiment [6]. Moreover, the GI50 in experiment [7] is > 100 µM (inactive); in experiment [8], 62.4 µM (inactive); in experiment [9], 36.3 µM (inactive); in [10], 53 µM (inactive); in [11], 31.2 µM (inactive); in [12], 33 µM (inactive). Further, the GI50 in experiment [13] is > 100 µM (inactive); in [14], 74.6 µM (inactive); in [15], 38.3 µM (inactive).

In the case of `CNS(=O)(=O)NNS(=O)(=O)c1ccc(Br)cc1`, the GI50 in [1] was > 100 µM (inactive); in experiment [2], > 100 µM (inactive); in experiment [3], 47 µM (inactive); in experiment [4], > 100 µM (inactive); in experiment [16], > 100 µM (inactive); in [5], 28.3 µM (inactive). Further, the GI50 was > 100 µM (inactive) in [6]; > 100 µM (inactive) in experiment [7]; > 100 µM (inactive) in experiment [8]; 63.1 µM (inactive) in experiment [10]; > 100 µM (inactive) in experiment [11]; > 100 µM (inactive) in [12]. Further, the GI50 in experiment [13] is > 100 µM (inactive); in experiment [14] it was 0.309 µM (active); in experiment [15], 99.3 µM (inactive).

Consider `CC1CCSC(N(C(=O)N(C)c2ccccc2)c2ccccc2)=N1` (configuration not stated), for which the GI50 in [1], in [2], in experiment [3], in experiment [4], in experiment [16] and in [5] was > 100 µM (inactive) each time. Besides, the GI50 in experiment [6], in experiment [7], in experiment [8], in experiment [9], in [10] and in [11] was > 100 µM (inactive) in each case. Further, the GI50 in experiment [12], in [13], in experiment [14] and in [15] was > 100 µM (inactive) in each case.

Turning to `O=C1CC2CCN(C(=O)c3ccccc3)CC2CCN1` (configuration not stated), the GI50 in experiment [1], in experiment [2], in experiment [3], in [4], in [16] and in experiment [5] was > 100 µM (inactive) each time. The GI50 in experiment [6] was > 100 µM (inactive); in experiment [7], > 100 µM (inactive); in experiment [8], 0.578 µM (active); in experiment [9] it was > 100 µM (inactive); in experiment [10], > 100 µM (inactive); in experiment [17], > 100 µM (inactive). Besides, the GI50 in [11], in experiment [13], in [14] and in experiment [15] was > 100 µM (inactive) each time.

As to `Fc1cccc2cc3ccc4cccc5ccc(c12)c3c45`, the GI50 is 1.63 µM (inactive) in experiment [1]; > 100 µM (inactive) in experiment [2]; > 100 µM (inactive) in [3]; 0.509 µM (active) in [4]; 7.4 µM (inactive) in experiment [16]; > 100 µM (inactive) in experiment [5]. Moreover, the GI50 was > 100 µM (inactive) in experiment [6]; > 100 µM (inactive) in [7]; > 100 µM (inactive) in [9]; > 100 µM (inactive) in experiment [10]; 0.0146 µM (active) in [17]; > 100 µM (inactive) in experiment [11]. In addition, the GI50 in experiment [12], in experiment [13], in experiment [14] and in experiment [15] was > 100 µM (inactive) in each case.

In the case of `COc1ccc(OCC(=O)O)c2c1CCCC2=O`, the GI50 in experiment [1] was > 100 µM (inactive); in experiment [2], > 100 µM (inactive); in experiment [3], 62.8 µM (inactive); in [4], > 100 µM (inactive); in experiment [16], > 100 µM (inactive); in experiment [5], > 100 µM (inactive). For the same compound, the GI50 in experiment [6], in [7], in [8], in experiment [9], in experiment [10] and in experiment [17] was > 100 µM (inactive) throughout. For the same compound, the GI50 in experiment [11], in experiment [13], in experiment [14] and in [15] was > 100 µM (inactive) throughout.

Consider `CC1=C(C(=O)Nc2cc(=O)n(C)c(=O)n2C)C(c2ccco2)C(C(=O)Nc2cc(=O)n(C)c(=O)n2C)=C(C)N1`, for which the GI50 in [1] is > 100 µM (inactive); in experiment [2] it was > 100 µM (inactive); in experiment [3], 44.8 µM (inactive); in [4] it was > 100 µM (inactive); in experiment [16], > 100 µM (inactive); in [5], > 100 µM (inactive). For the same compound, the GI50 in experiment [6], in experiment [7], in experiment [8], in [9], in experiment [10] and in experiment [11] was > 100 µM (inactive) each time. Further, the figures for the GI50 in experiment [12], in experiment [13] and in [14] were > 100 µM (inactive), 41.5 µM (inactive) and > 100 µM (inactive), respectively.

As for `COC(=O)C(=O)C(C#N)c1cccc2ccccc12` (configuration not stated), the GI50 in experiment [1] was > 100 µM (inactive); in experiment [2], > 100 µM (inactive); in experiment [3] it was 97.3 µM (inactive); in [4], > 100 µM (inactive); in experiment [16], > 100 µM (inactive); in experiment [5], > 100 µM (inactive). Also, the GI50 in experiment [6], in experiment [7], in [9], in [10], in experiment [17] and in experiment [11] was > 100 µM (inactive) throughout. Also, the GI50 in experiment [12], in experiment [13], in experiment [14] and in experiment [15] was > 100 µM (inactive) each time.

As to `COc1cc2c(c(OC)c1)C1(CC(CC#N)C2)SCCS1` (configuration not stated), the GI50 in [2] was > 100 µM (inactive); in experiment [3], 56.9 µM (inactive); in experiment [4] it was > 100 µM (inactive); in experiment [5], > 100 µM (inactive); in [6], 62.2 µM (inactive); in experiment [7] it was > 100 µM (inactive). For the same compound, the GI50 in experiment [8], in experiment [9], in [10], in [11], in experiment [12] and in [13] was > 100 µM (inactive) each time. The GI50 in experiment [14] and in experiment [15] was > 100 µM (inactive) in each case.

Take `CC(=O)NC(Cc1ccccc1)C(=S)N1CCCC1` (configuration not stated): the GI50 in experiment [1] was > 100 µM (inactive); in [2], > 100 µM (inactive); in experiment [3], 55.3 µM (inactive); in experiment [4] it was > 100 µM (inactive); in experiment [16], > 100 µM (inactive); in experiment [5], > 100 µM (inactive). For the same compound, the GI50 in experiment [6], in [7], in experiment [8], in [9], in [10] and in experiment [11] was > 100 µM (inactive) in each case. The GI50 in experiment [12], in experiment [13], in experiment [14] and in [15] was > 100 µM (inactive) throughout.

Turning to `O=C(c1ccccn1)c1nc(-c2ccc(Cl)c(Cl)c2)nc2ccc(Cl)cc12`, the GI50 in experiment [1] is 20.3 µM (inactive); in experiment [2], 41.6 µM (inactive); in experiment [3] it was 12.3 µM (inactive); in experiment [4] it was 99.3 µM (inactive); in [16] it was > 100 µM (inactive); in experiment [5], 44.1 µM (inactive). The GI50 in [6] is 51.9 µM (inactive); in experiment [7] it was 18.1 µM (inactive); in experiment [8], 34.3 µM (inactive); in experiment [9] it was 58.6 µM (inactive); in [10], 44.6 µM (inactive); in experiment [11], > 100 µM (inactive). For the same compound, the GI50 in experiment [12] was 56.6 µM (inactive); in experiment [13] it was 21.3 µM (inactive); in [15], 15.5 µM (inactive).

Turning to `COC(=O)/C=C/C1C2C3(CCC(C)C12C)OCCS3` (configuration not stated), the GI50 in [1], in [2], in [3], in experiment [4], in [16] and in experiment [5] was > 100 µM (inactive) throughout. Moreover, the GI50 in experiment [6] was > 100 µM (inactive); in experiment [7] it was > 100 µM (inactive); in experiment [8] it was > 100 µM (inactive); in [9], 40.6 µM (inactive); in experiment [10], > 100 µM (inactive); in experiment [17], 43.1 µM (inactive). For the same compound, the GI50 in [11], in experiment [13], in experiment [14] and in experiment [15] was > 100 µM (inactive) throughout.

For `COc1ccc(C2CC(=O)c3c(O)cc(O)cc3O2)cc1O` (configuration not stated), the GI50 in experiment [1] is > 100 µM (inactive); in experiment [2] it was > 100 µM (inactive); in experiment [3], 53.8 µM (inactive); in [4], > 100 µM (inactive); in experiment [16], > 100 µM (inactive); in [5], > 100 µM (inactive). For the same compound, the GI50 in experiment [6], in experiment [7], in [8], in [9], in [10] and in experiment [11] was > 100 µM (inactive) in each case. In addition, the GI50 in [12], in [13], in experiment [14] and in [15] was > 100 µM (inactive) throughout.
